In US6706491B1, “Reagents and methods for identifying and modulating expression of genes regulated by p21” (The Board of Trustees of the University of Illinois, priority 1999, dated 2004):

How the values were obtained:
p21-9 cells [1] = test: Morphology of mitotic figures after release from IPTG; type: cell-based, human; conditions: 1-2 days after release
Method: (§1) The mitogenic index was determined by observing cells microscopically and calculating the number of cells in mitosis after staining with 5 μg/mL 4,6-diamino-2-phenylindole (DAPI), and images were collected using a Leica DMIRB fluorescence microscope and Vaytek (Fairfield, Iowa) imaging system. Microscopically-detectable mitotic cells disappeared from these cultures in the presence of IPTG in two stages: the first occurring between 0-4 hours after IPTG addition (wherein the mitotic index dropped from about 15% in untreated cells to about 5% in IPTG-treated cells) and then again between about 10-14 hours after IPTG addition (wherein the mitotic index dropped to zero at about 13 hours after IPTG addition (FIG. 3B).
A major difference between cells that were inhibited by IPTG for one day compared with those inhibited for S days emerged, however, when the morphology of attached mitotic cells arising 1-2 days after release from IPTG was examined. […] The percentage of normal mitoses in 1-day and 5-day IPTG treated cells were 45% and 2%, respectively, which is close to the corresponding values for clonogenic recovery (38% and 1%).

p21-9 cells [2] = test: Mitotic index (microscopy after DAPI staining) in p21-9 cells; type: cell-based, human
Method: (§2) Cell growth in the presence of IPTG was assayed in three ways: measuring ^3H-thymidine incorporation (termed the “labeling index”); observing the number of mitotic cells in the culture by microscopy (termed the “mitotic index”) and determining the distribution of the culture cells in different portions of the cell cycle (termed the “cell cycle distribution”).
as §1

C8 cells = test: Apoptosis / cell survival assay in low serum; type: cell-based, mouse; conditions: IPTG added by itself
Method: (§3) In these experiments, conditioned media were prepared by plating 10^6 p12-9 cells per 15 cm plate in the presence of DMEM/10% FCS. The next day, IPTG was added to a final concentration of 50 μM, and this media was replaced three days later with DMEM supplemented with 0.5% FCS and 50 μM IPTG. Two days later (days 3-5 of IPTG treatment), this conditioned media was collected and stored at 4° C. up to 15 days before use. Control media were prepared by adding IPTG-free DMEM/0.5% FCS to untreated cells grown to the same density as IPTG-treated cells and collecting the media two days thereafter.
The effect of this conditioned media on apoptosis was also determined. These experiments used a mouse embryo fibroblast line C8, immortalized by E1A. […] Apoptosis was analyzed by plating 3×10^5 C8 cells per 6-cm plate, and replacing the media on the following day with fresh media supplemented with 0.4% serum or with conditioned media (no fresh serum added). DNA content analysis and DAPI staining were carried out after 24 hrs and 48 hrs, and relative cell numbers were measured by methylene blue staining (Perry et al., 1992, Mutai. Res. 276: 189-197) after 48 hrs in low-serum media.

p21-9 cells [3] = test: Cell cycle distribution (FACS, propidium iodide) in p21-9 cells; type: cell-based, human; conditions: after 24 hrs of 50 μM IPTG
Method: as §2
Cell cycle distribution was determined using FACS analysis of DNA content after staining with propidium iodide as described by Jordan et al. (1996, Cancer Res. 56: 816-825) using Becton Dickinson FACSort. By this time, 42-43% of IPTG-treated cells were arrested in G1 and G2, respectively, and about 15% of the cells were arrested with S-phase DNA content.

p21-9 cells [4] = test: Colony assay for recovery from IPTG treatment; type: cell-based, human; conditions: for decreased clonogenicity: 3-5 days treatment; for reduction of clonogenicity: continuous exposure
Method: (§4) Colony assays for recovery from IPTG treatment were performed by plating about 2,000 p21-9 cells per 10 cm culture dish in DMEM/10% FCS and the presence or absence of IPTG. Cells were allowed to form colonies for 10 days before their clonogenic capacity was determined. p12-9 cells were treated with three concentrations of IPTG: 0.5 μM, 5 μM and 50 μM. […] In contrast, continuous exposure of the cells to 5 μM or 50 μM IPTG reduced the clonogenicity of p2l-9 cells by 80% and 100%, respectively.

HS 15.T cells = test: Mitogenic activity assay (3H-thymidine incorporation); type: cell-based, human; conditions: media supplemented with 1% or 2% FCS; 60 hr then 24 hrs label
Method: as §3
The slow-growing human fibrosarcoma cell line HS 15.T was used to detect mitogenic activity in these conditioned media. For mitogenic activity assays, both types of conditioned media, as well as fresh media and 1:1 mixtures of conditioned media and fresh media were used to test mitogenic activity. In these experiments, the conditioned media were supplemented with 1% or 2% FCS. Briefly, HS 15.T cells were plated in 12-well plates at 15,000 cells per well. Two days later, these cells were cultured in different types of media. […] Cells were then collected and their ^3H-thymidine incorporation determined as described by Mosca et al. (1992, Mol. Cell. Biol. 12: 4375-4383).

p21 = p21 induction in p21-9 cells by IPTG (p21 ELISA); type: cell-based, human
Method: p21 expression from the LNp21CO3 vector in p21-9 cells was induced by culturing the cells in DMEM medium containing 10% fetal calf serum (Hyclone, Logan, Utah) and IPTG. […] Upon removing the cells from IPTG-containing media, p21 expression fell about as rapidly as it had risen, returning to pre-induction levels at about 24 hours after IPTG was removed, (FIG. 2B).
as §4
Expression of 69 of these genes was individually tested by RT-PCR or northern hybridization with probes derived from inserts of the cDNA clones present in the microarray; these cDNAs were obtained from Genome Systems, Inc. In addition, enzyme-linked immunosorbent assay (ELISA) measurement of p21 protein was carried out using WAF1 ELISA kit (obtained from Oncogene Science, Uniondale, N.Y.) as described (Chang et al., 1999, Oncogene 18: 4808-4818). The following primary antibodies were used for immunoblotting: mouse monoclonal antibodies against Cdc2 (Santa Cruz), cyclin A (NeoMarkers), Plk 1 (Zymed) and Rb (PharMingen); rabbit polyclonal antibodies against MAD2 (BadCo), p107 (Santa Cruz), CTGF (Fisp-12; a gift of Dr. L. Lau), Prc 1 (a gift of Drs. W. Jiang and T. Hunter), and topoisomerase IIα (Ab0284; a gift of Dr. W. T. Beck), and sheep polyclonal antibody against. SOD2 (Calbiochem). Horse radish peroxidase (HRP)-conjugated secondary antibodies used were goat anti-mouse and goat anti-rabbit. IgG (Santa:Cruz) and rabbit anti-sheep IgG (KPL). Protein concentrations in all samples were equalized after measurement with BioRad-protein assay kit. Immunoblotting was carried out by standard procedures, and the signal was detected by chemiluminescence using LumiGlo (KPL).

p21-9 cells [5] = test: 3H-thymidine labeling index (autoradiography) in p21-9 cells; type: cell-based, human
Method: as §2
^3H-thymidine incorporation assays were performed substantially as described by Dimri et al. (1995, Proc. Natl. Acad. Sci. USA 92: 9363-9367). Cells were cultured in the presence of ^3H-thymidine for 3h, and then analyzed by autoradiography. DNA replication as determined by autoradiography ceased entirely by 9 hours after addition of IPTG to the culture media (FIG. 3A).

CC(C)S[C@@H]1O[C@H](CO)[C@H](O)[C@H](O)[C@H]1O [IPTG, isopropyl-β-thiogalactoside]
percentage of normal mitoses (p21-9 cells [1]; 1-day IPTG treatment): 45% | percentage of normal mitoses (p21-9 cells [1]; 5-day IPTG treatment): 2% | mitotic index (p21-9 cells [2]; 0-4 hours after addition of 50 μM IPTG, about 15% in untreated cells): about 5% | time at which mitotic index dropped to zero after IPTG addition (p21-9 cells [2]; 50 μM IPTG): about 13 hours | time to resumption of mitosis after IPTG release (p21-9 cells [2]; after removal of 50 μM IPTG): about 30 hours | effect on apoptosis in C8 cells (C8 cells): no effect on apoptosis | cells arrested in G1 and G2, respectively (p21-9 cells [3]): 42-43% | cells arrested with S-phase DNA content (p21-9 cells [3]): about 15% | colony formation (p21-9 cells [4]; 0.5 μM IPTG): did not inhibit colony formation | colony formation (p21-9 cells [4]; 5 μM IPTG removed after 12 or 14 hours): substantially undiminished colony formation | decreased clonogenicity (p21-9 cells [4]; 5 μM IPTG): 55-58% | decrease in clonogenicity (p21-9 cells [4]; 50 μM IPTG removed after 12 or 14 hours): 58-63% | decreased clonogenicity (p21-9 cells [4]; 50 μM IPTG): 95-99% | reduction of clonogenicity (p21-9 cells [4]; 5 μM IPTG): 80% | reduction of clonogenicity (p21-9 cells [4]; 50 μM IPTG): 100% | effect on 3H-thymidine incorporation by HS 15.T cells (HS 15.T cells): no effect | increase in p21 gene expression (p21; 0.5 μM IPTG): no measurable increase over basal p21 levels | increase in p21 gene expression (p21; 5 μM IPTG): half-maximal | increase in p21 gene expression (p21; 50 μM IPTG): maximal increase | time of peak p21 expression post-induction (p21; 50 μM IPTG): about 24 hours | increase in p21 levels (p21; IPTG-treated p21-9 cells, 50 μM IPTG): 15-20 fold | time to complete cessation of DNA replication after addition of IPTG (p21-9 cells [5]; 50 μM IPTG): ≤ 9 h | time to resumption of DNA replication after release from IPTG (p21-9 cells [5]; after removal of 50 μM IPTG): about 20 hours
